Assay results from patent US20060172023A1, “Use of pinolenic acid” (LODERS CROKLAAN B.V., priority 2005, published 2006).

System: enteroendocrine STC1-1 cell line
Test: In-vitro relative CCK release from enteroendocrine cells (Example 4, RIA)
Type: cell-based
Details: 100 μM in free fatty acid form, 1 hour; for Relative amount of CCK released: measured in 6-fold
Method: The relative CCK release by a number of different compounds was determined in vitro an in-vitro trial to measure the effect of various free fatty acids on CCK release from intestinal cells.
Cells were routinely passaged upon reaching 70-80% confluency by washing the cell layer with PBS and incubating with a solution of trypsin-EDTA. Plating density of 2×10^6 cells by 75 cm^2 was used for routine subculture.
STC1 cells were seeded into 6-well culture plates and incubated with control culture medium, with or without the tested agents, for 1 hour. All agents were tested at a 100 μM concentration in the free fatty acid form. Since fatty acids were diluted into ethanol the effect of ethanol was tested and indicated the baseline CCK levels. […] Effects of bombesin was used as positive control. At the end of incubation the supernatant was collected, centrifuged and immediately frozen at −20° C. for RIA.
Cell viability was checked by microscopic analysis, analyzing DNA content which was measured by fluorometry after extraction of the culture cell contents, and in addition LDH release was measured.
CCK release was measured using a standard CCK RIA and effects of fatty acids were measured in 6-fold.

Structure (SMILES)	Ability to induce CCK (in words)	Relative amount of CCK released	Level of CCK relative to negative control capric acid
CCCC/C=C/C=C/C=C\CCCCCCCC(=O)O [Alpha-eleostearic acid 18:3, Alpha-eleostearic acid]	good inducers of CCK	212	–
CC/C=C\C/C=C\C/C=C\CCCCCCCC(=O)O [Alpha-linolenic acid 18:3, Alpha-linolenic acid]	good inducers of CCK	177	–
CCCCCCCCCC(=O)O [Capric acid]	–	43	–
CCCCC/C=C\C/C=C\C/C=C\CCCCC(=O)O [Gamma-linolenic acid 18:3, Gamma-linolenic acid]	good inducers of CCK	140	–
CCCCCC=CC/C=C\CCCCCCCC(=O)O [Linoleic acid 18:2, cis-9,12 octadecadienoic acid]	not able to induce high amounts of CCK	68	about 2 fold
CCCCCCCC/C=C\CCCCCCCC(=O)O [Oleic acid 18:1, cis-9 octadecenoic acid]	not able to induce high amounts of CCK	90	about 2 fold
CCCC\C=C/C=C/C=C\CCCCCCCC(=O)O [Punicic acid 18:3, Punicic acid]	good inducers of CCK	320	–
CC/C=C\C/C=C\C/C=C\CCCC/C=C\CCCC(=O)O [juniperonic acid]	not able to induce high amounts of CCK	–	about 2 fold
CCCCC/C=C\C/C=C\CCCC/C=C\CCCC(=O)O [sciadonic acid]	not able to induce high amounts of CCK	–	about 2 fold
CCCCCCCCC=CCC/C=C\CCCC(=O)O [taxoleic acid, cis-5,9 octadecadienoic acid]	not able to induce high amounts of CCK	–	about 2 fold
